Experimental data published in US20250213563A1, “SUBSTITUTED PYRIMIDIN-4(3H)-ONES FOR USE IN TREATING CANCER” (NAVIRE PHARMA, INC., priority 2021, published 2025).

Experiments:
[1] = Single-dose pharmacokinetics, Sprague Dawley rat; format: in vivo, male); conditions: for AUC(0-t): read-out: AUC0→24
Description: (§1) The pharmacokinetic (PK) parameters of Compound (10b) (freebase) were determined following single intravenous (IV) and oral (PO) administration in female CD-1 mouse, female C57BL/6 mouse (PO only), male Sprague Dawley rat, male Beagle dog, and male Cynomolgus monkey. Additional evaluation of the PK properties of Compound (10b) was obtained following single dose PO administration in female CD-1 mouse, male Sprague Dawley rat and male Beagle dog over a dose range spanning 10 to 300 mg/kg (mouse and rat) and 1 to 100 mg/kg (dog). The intravenous dose solutions were prepared in 20% DMSO-60% PEG400-20% water and the oral dose solutions as suspensions in 0.5% methylcellulose in water, unless otherwise noted. Plasma concentration profiles were generated from serial sampling in individual animals up to 24 hours post dose, except for the studies in mice where composite sampling methods were used (i.e. 3 sampling times per mouse; 9 mice per group). […] Exposures increased with increasing dose level across species, in a dose-proportional manner in mouse and dog, and in a greater than dose-proportional manner in rat (80× increase in AUC with a 30× increase in dosage).

KYSE-520 = assay: 3D cell viability (CellTiter-Glo); format: cell-based; conditions: Homo sapiens, 192 h; KYSE-520, EGFR^amp; 8 days of treatment; read-out: 3D CTG (IC50)
Description: (§2) The potency of Compound (10b) in a panel of human tumor cell lines with active MAPK signaling was assessed. Cell viability in a 3D culture system was assessed by measuring CellTiter-Glo (CTG) luminescence following 8 days of treatment with nine concentrations of Compound (10b). MAPK pathway signaling was assessed by measuring pERK protein levels and DUSP6 mRNA levels by homogeneous time resolved fluorescence (HTRF) and quantitative polymerase chain reaction (qPCR), respectively. […] These viability effects correlated with pERK inhibition (Table 2, FIG. 6B) and DUSP6 inhibition (FIG. 6C).

NCI-H358 = assay: 3D cell viability (CellTiter-Glo); format: cell-based; conditions: Homo sapiens, 192 h; NCI-H358, KRAS^G12C; 8 days of treatment; read-out: 3D CTG (IC50)
Description: as §2

HCC827 = assay: 3D cell viability (CellTiter-Glo); format: cell-based; conditions: Homo sapiens, 192 h; HCC827, EGFR^Ex19del; 8 days of treatment; read-out: 3D CTG (IC50)
Description: as §2

NCI-H1299 = assay: 3D cell viability (CellTiter-Glo); format: cell-based; conditions: Homo sapiens, 192 h; NCI-H1299, NRAS^Q61K; 8 days of treatment; read-out: 3D CTG (IC50)
Description: as §2

NCI-H1975 = assay: 3D cell viability (CellTiter-Glo); format: cell-based; conditions: Homo sapiens, 192 h; NCI-H1975, EGFR^L858R/T790M; 8 days of treatment; read-out: 3D CTG (IC50)
Description: as §2

[2] = Single-dose pharmacokinetics, CD-1 mouse; format: in vivo, mouse (CD-1, female); conditions: for AUC(0-t): read-out: AUC0→24
Description: as §1

[3] = male, Sprague Dawley, rat, plasma, IV 0.3 mg/kg, free base
[4] = male, Sprague Dawley, rat, plasma, oral 10 mg/kg, free base
[5] = female, CD-1, mouse, plasma, IV 1 mg/kg, free base
[6] = female, CD-1, mouse, plasma, oral 10 mg/kg, free base

Cc1c(N2CCC3(CC2)CO[C@@H](C)[C@H]3N)nc(C)n(-c2cccc(Cl)c2Cl)c1=O (atropisomer, axis not shown; (Ra)) [Compound (10b), 6-((3S,4S)-4-amino-3-methyl-2-oxa-8-azaspiro[4.5]decan-8-yl)-3-(Ra)-(2,3-dichlorophenyl)-2,5-dimethylpyrimidin-4(3H)-one]
half-life [1, 3]: 551 min | AUC(0-t) [1, 3]: 3.27 µM·h | clearance ([1]; male, Sprague Dawley, rat, plasma, IV 0.3 mg/kg, free base, read-out: Clp (converted)): 10.2 mL/min/kg | Vd ([1]; male, Sprague Dawley, rat, plasma, IV 0.3 mg/kg, free base, read-out: Vdss): 6.05 L/kg | Cmax [1, 4]: 3.05 µM | AUC(0-t) [1, 4]: 19.1 µM·h | Tmax ([1]; male, Sprague Dawley, rat, plasma, oral 10 mg/kg, free base, read-out: Tmax (mean)): 55.2 min | Tmax ([1]; male, Sprague Dawley, rat, plasma, oral 300 mg/kg, read-out: mean Tmax): ≤ 480 min | F ([1]; oral 10 mg/kg, free base): 51.2% | increase in AUC ([1]; oral, with a 30× increase in dosage (10 to 300 mg/kg)): 80 × | IC50 (KYSE-520): 210 nM | IC50 (NCI-H358): 280 nM | IC50 (HCC827): 1200 nM | IC50 (NCI-H1299): > 25000 nM | IC50 (NCI-H1975): 180 nM | half-life [2, 5]: 133 min | AUC(0-t) [2, 5]: 1.39 µM·h | clearance ([2]; female, CD-1, mouse, plasma, IV 1 mg/kg, free base, read-out: Clp (converted)): 25.7 mL/min/kg | Vd ([2]; female, CD-1, mouse, plasma, IV 1 mg/kg, free base, read-out: Vdss): 3.84 L/kg | Cmax [2, 6]: 4.17 µM | AUC(0-t) [2, 6]: 12.5 µM·h | Tmax ([2]; female, CD-1, mouse, plasma, oral 10 mg/kg, free base, read-out: Tmax (mean)): 15 min | Tmax ([2]; female, CD-1, mouse, plasma, oral 300 mg/kg, read-out: mean Tmax): 15 min | F ([2]; oral 10 mg/kg, free base): 84.1%
